Test results reported in paper PMC5290327, “SC83288 is a clinical development candidate for the treatment of severe malaria” (Nature Communications, 2017).
Converted amounts (≈) assume the structure as drawn. Read-outs that look alike come from different tables or passages of the source.

What was measured:
P. falciparum strain Dd2 = experiment: Growth inhibition assay, asexual blood stages; format: cell-based, Plasmodium falciparum
CACO 2 cells = experiment: Permeability assay; format: in vitro ADME; conditions: Supplementary Table 2
Procedure: The study was conducted by Cyprotex (Macclesfield, United Kingdom). CACO 2 cells (Sigma-Aldrich, catalogue: 86010202) were seeded on Millipore Millicell plates and formed a confluent monolayer over 20 days before the experiment. On day 20, the tested compounds at a final concentration of 10 μM were added to the apical side of the membrane. The transport of the compound across the monolayer was monitored over a 2 h period by liquid chromatography (LC)–MS/MS quantification. The permeability coefficient (Papp) was calculated from the following equation: [drawing 1] , where dQ/dt is the rate of permeation of the drug across the cells, C0 the donor compartment concentration at time zero and A the area of the cell monolayer. C0 was obtained from analysis of the dosing solution at the start of the experiment.

Solubility in water = conditions: Supplementary Table 2
P. falciparum strain D10 = experiment: Growth inhibition assay; format: cell-based; conditions: Plasmodium falciparum
P. falciparum strain 3D7 = experiment: Growth inhibition assay; format: cell-based; conditions: Plasmodium falciparum
[1] = test system: P. falciparum strain FCR3; experiment: Growth inhibition assay; format: cell-based; conditions: Plasmodium falciparum
P. falciparum strain K1 = experiment: microbe, parasite or virus in culture; format: cell-based; conditions: Plasmodium falciparum
[2] = test system: P. falciparum strain Thai19; experiment: Growth inhibition assay; format: cell-based; conditions: Plasmodium falciparum
P. falciparum strain 7G8 = experiment: microbe, parasite or virus in culture; format: cell-based; conditions: Plasmodium falciparum
[3] = In vitro metabolism in liver microsomes; conditions: Human
[4] = In vitro metabolism in liver microsomes; conditions: Monkey
[5] = In vitro metabolism in liver microsomes; conditions: Dog
[6] = In vitro metabolism in liver microsomes; conditions: SC83288 metabolites, Mouse
[7] = In vitro metabolism in liver microsomes; conditions: Rat
Plasmodium vinckei = experiment: Rodent malaria model; format: in vivo; conditions: P. vinckei, 20 mg kg-1 i.p. 1x4 days
Excerpt: The two SC compounds were also active in the Plasmodium vinckei rodent malaria model system.

[8] = Supplementary Table 2, read-out: In vitro IC50
[9] = Plasmodium falciparum, DD2, strain Dd2, Supplementary Table 3

## CC(C)N1CCN(C(=N)c2cccc(NC(=O)Nc3ccc(S(=O)(=O)NCc4ccc(S(N)(=O)=O)cc4)cc3)c2)CC1 [SC82486]
P. falciparum strain Dd2; [8]
  IC50: 38 nM
CACO 2 cells
  Papp: 2.50 10-6 cm s-1
Solubility in water
  Solubility in H2O: 100 µg/mL (≈ 163 µM)

## CCCCCN1CCN(C(=N)c2cccc(NC(=O)Nc3ccc(S(=O)(=O)NCc4ccc(S(N)(=O)=O)cc4)cc3)c2)CC1 [SC82833]
P. falciparum strain Dd2; [8]
  IC50: 13 nM
Solubility in water
  Solubility in H2O: 100 µg/mL (≈ 156 µM)

## N=C(N)c1cccc(NC(=O)Nc2ccc(S(=O)(=O)c3ccc(Br)cc3)cc2)c1 [SC48443]
P. falciparum strain Dd2; [8]
  IC50: 63.9 nM
Solubility in water
  Solubility in H2O: 100 µg/mL (≈ 211 µM)

## N=C(c1cccc(NC(=O)Nc2ccc(S(=O)(=O)NCc3ccc(S(N)(=O)=O)cc3)cc2)c1)N1CCN(CCO)CC1 [SC81452]
P. falciparum strain Dd2; [8]
  IC50: 100 nM
Solubility in water
  Solubility in H2O: 32 µg/mL (≈ 52 µM)

## C=C[C@H]1C[N@@]2CC[C@H]1C[C@@H]2[C@@H](O)c1ccnc2ccc(OC)cc12 [Quinidine]
P. falciparum strain Dd2; [9]
  IC50: 15 ± 1 nM
P. falciparum strain D10
  IC50: 16 ± 1 nM
P. falciparum strain 3D7
  IC50: 14 ± 1 nM
[1]
  IC50: 32 ± 6 nM
P. falciparum strain K1
  IC50: 12 ± 3 nM
[2]
  IC50: 22 ± 5 nM
P. falciparum strain 7G8
  IC50: 16 ± 4 nM

## CCN(CC)CCCC(C)Nc1ccnc2cc(Cl)ccc12 (stereo not drawn) [Chloroquine]
P. falciparum strain D10
  IC50: 11 ± 30 nM
P. falciparum strain 3D7
  IC50: 3 nM
[1]
  IC50: 25 ± 40 nM
P. falciparum strain K1
  IC50: 70 ± 14 nM
[2]
  IC50: 74 ± 17 nM
P. falciparum strain 7G8
  IC50: 30 ± 70 nM

## CC(=O)N1CCN(C(=N)c2cccc(NC(=O)Nc3ccc(S(=O)(=O)NCc4ccc(S(N)(=O)=O)cc4)cc3)c2)CC1 [SC83287]
P. falciparum strain Dd2; [8]
  IC50: 5000 nM
Solubility in water
  Solubility in H2O: 10 µg/mL (≈ 16.3 µM)

## N=C(c1cccc(NC(=O)Nc2ccc(S(=O)(=O)NCc3ccc(S(N)(=O)=O)cc3)cc2)c1)N1CCN(C=O)CC1 [SC83288 M8]
[3]; SC83288 metabolites
  Share of metabolite from the total combined metabolite peak area: 0.1%
[4]; SC83288 metabolites
  Share of metabolite from the total combined metabolite peak area: 0.2%
[5]; SC83288 metabolites
  Share of metabolite from the total combined metabolite peak area: 0.5%
[6]
  Share of metabolite from the total combined metabolite peak area: 0.9%
[7]; SC83288 metabolites
  Share of metabolite from the total combined metabolite peak area: 0.6%

## CCN(CC)CCN(C)C(=N)c1cccc(NC(=O)Nc2ccc(S(=O)(=O)NCc3ccc(S(N)(=O)=O)cc3)cc2)c1 [SC82869]
P. falciparum strain Dd2; [8]
  IC50: 89 nM
Solubility in water
  Solubility in H2O: 320 µg/mL (≈ 520 µM)

## C=C[C@H]1C[N@@]2CC[C@H]1C[C@H]2[C@H](O)c1ccnc2ccc(OC)cc12 [Quinine]
P. falciparum strain Dd2; [9]
  IC50: 100 ± 10 nM
P. falciparum strain D10
  IC50: 58 ± 50 nM
P. falciparum strain 3D7
  IC50: 14 ± 20 nM
[1]
  IC50: 182 ± 27 nM
P. falciparum strain K1
  IC50: 46 ± 40 nM
[2]
  IC50: 62 ± 10 nM
P. falciparum strain 7G8
  IC50: 70 ± 17 nM

## N=C(c1cccc(NC(=O)Nc2ccc(S(=O)(=O)c3ccc(Br)cc3)cc2)c1)N1CCC(O)CC1 [SC77215]
P. falciparum strain Dd2; Supplementary Table 8, read-out: In vitro IC50
  IC50: 68 nM
Plasmodium vinckei
  Outcome: decrease of parasitemia: 45%

## CCC(=O)N1CCN(C(=N)c2cccc(NC(=O)Nc3ccc(S(=O)(=O)NCc4ccc(S(N)(=O)=O)cc4)cc3)c2)CC1 [SC83289]
P. falciparum strain Dd2; [8]
  IC50: 1820 nM
CACO 2 cells
  Papp: 1.70 10-6 cm s-1
Solubility in water
  Solubility in H2O: 32 µg/mL (≈ 51 µM)

## N=C(c1cccc(NC(=O)Nc2ccc(S(=O)(=O)NCc3ccc(S(N)(=O)=O)cc3)cc2)c1)N1CCN(Cc2ccncc2)CC1 [SC82687]
P. falciparum strain Dd2; [8]
  IC50: 995 nM
Solubility in water
  Solubility in H2O: 32 µg/mL (≈ 48.3 µM)

## CCN(CC)Cc1cc(Nc2ccnc3cc(Cl)ccc23)ccc1O [Amodiaquin]
P. falciparum strain Dd2; [9]
  IC50: 7 ± 1 nM
P. falciparum strain D10
  IC50: 7 ± 2 nM
P. falciparum strain 3D7
  IC50: 8 ± 1 nM
[1]
  IC50: 8 ± 0.4 nM
P. falciparum strain K1
  IC50: 9 ± 1 nM
[2]
  IC50: 9 ± 1 nM
P. falciparum strain 7G8
  IC50: 7 ± 2 nM

## N=C(c1cccc(NC(=O)Nc2ccc(S(N)(=O)=O)cc2)c1)N1CCNCC1 [metabolite 2]
P. falciparum strain Dd2; major metabolite, read-out: IC50, antiplasmodial activity in vitro
  IC50: 5000 nM
[3]; SC81458 metabolites
  Share of metabolite from the total combined metabolite peak area: 4.7%
[3]; SC83288 metabolites
  Share of metabolite from the total combined metabolite peak area: 0.3%
[4]; SC81458 metabolites
  Share of metabolite from the total combined metabolite peak area: 7.6%
[4]; SC83288 metabolites
  Share of metabolite from the total combined metabolite peak area: 5.4%
[5]; SC81458 metabolites
  Share of metabolite from the total combined metabolite peak area: 1.6%
[7]; SC81458 metabolites
  Share of metabolite from the total combined metabolite peak area: 0.3%
[7]; SC83288 metabolites
  Share of metabolite from the total combined metabolite peak area: 0.3%
